Target: T1, E. coli-expressed nitrilase (Alcaligenes faecalis, UniProt P20960)
T1 construct: expressed in transfected cells; host or cells: Escherichia coli TG10 (pDHE1650 pAgro4 pHSG575), whole-cell suspension
Experiment: Nitrilase activity test of the cell suspension after storage with aldehyde
Type: cell-based, Escherichia coli
Method: The Escherichia coli strain (TG10 pDHE1650 pAgro4 pHSG575) was fermented in a 20 l bioreactor. The reactor, containing a 10 l working volume, was inoculated with 200 ml of preliminary culture from shaker flasks. The preliminary culture medium corresponds to the main culture medium.
The fermentation is carried out at a temperature of 37° C. The gassing is regulated between 8-30 l/min, while the rotation speed of the stirrer is regulated at […], in order to maintain a pO2 of not less than 20%. After a fermentation period of 1 h, the culture is induced with IPTG (0.15 mM). 18.5 g of rhamnose feed solution are then added. After the initially introduced quantity of glycerol has been consumed, glycerol is then fed in continuously. After a fermentation period of 44 h, cell suspensions of 50 g DBM/l and 50 to 60 ku/l are obtained. The cells are cooled down to 4° C.
50 μl of cell suspension are pipetted into 880 μl of sodium potassium phosphate buffer (10 mM) and the whole is equilibrated at 30° C. The reaction is started by adding 20 μl of methanolic mandelonitrile solution (12%). After 10 min, the enzyme reaction is stopped by adding 50 μl of 1M HC. The cell mass is centrifuged off and the concentration of mandelic acid in the supernatant is measured by means of HPLC (ODS Hypersil 100*2.0 mm, mobile phase: 75% H3PO4 (14.8 mM)/25% methanol; flow rate: 0.5 ml/min; injection volume: 2 μl; column temperature: 40° C.; detection: 210 nm; mandelic acid retention time: 0.9 min).
14 h after the end of the fermentation, the cell suspension was adjusted to a pH of 6.0, 6.6 or 7.2 with NaOH or H2SO4 and then treated with benzaldehyde. The samples were stored at 4° C. or 22° C. Enzyme activity was determined at 0.6, 3.6 and 6.6 days after the end of the fermentation.
14 h after the end of the fermentation, the cell suspension was adjusted to a pH of 6.0, 6.6. or 7.2 with NaOH or H2SO4 and then treated with 2-chlorobenzaldehyde. The samples were stored at 4° C. or 22° C. The enzyme activity was determined at 0.6, 3.6 and 6.6 days after the end of the fermentation.

[1] = storage at 4° C., pH 6.0, 1 mM aldehyde, storage period 0.6 d
[2] = storage at 4° C., pH 6.0, 1 mM aldehyde, storage period 3.6 d
[3] = storage at 4° C., pH 6.0, 1 mM aldehyde, storage period 6.6 d
[4] = storage at 4° C., pH 6.0, 5 mM aldehyde, storage period 0.6 d
[5] = storage at 4° C., pH 6.0, 5 mM aldehyde, storage period 3.6 d
[6] = storage at 4° C., pH 6.0, 5 mM aldehyde, storage period 6.6 d
[7] = storage at 4° C., pH 6.0, 10 mM aldehyde, storage period 0.6 d
[8] = storage at 4° C., pH 6.0, 10 mM aldehyde, storage period 3.6 d
[9] = storage at 4° C., pH 6.0, 10 mM aldehyde, storage period 6.6 d
[10] = storage at 4° C., pH 6.6, 1 mM aldehyde, storage period 0.6 d
[11] = storage at 4° C., pH 6.6, 1 mM aldehyde, storage period 3.6 d
[12] = storage at 4° C., pH 6.6, 1 mM aldehyde, storage period 6.6 d
[13] = storage at 4° C., pH 6.6, 5 mM aldehyde, storage period 0.6 d
[14] = storage at 4° C., pH 6.6, 5 mM aldehyde, storage period 3.6 d
[15] = storage at 4° C., pH 6.6, 5 mM aldehyde, storage period 6.6 d
[16] = storage at 4° C., pH 6.6, 10 mM aldehyde, storage period 0.6 d
[17] = storage at 4° C., pH 6.6, 10 mM aldehyde, storage period 3.6 d
[18] = storage at 4° C., pH 6.6, 10 mM aldehyde, storage period 6.6 d
[19] = storage at 4° C., pH 7.2, 1 mM aldehyde, storage period 0.6 d
[20] = storage at 4° C., pH 7.2, 1 mM aldehyde, storage period 3.6 d
[21] = storage at 4° C., pH 7.2, 1 mM aldehyde, storage period 6.6 d
[22] = storage at 4° C., pH 7.2, 5 mM aldehyde, storage period 0.6 d
[23] = storage at 4° C., pH 7.2, 5 mM aldehyde, storage period 3.6 d
[24] = storage at 4° C., pH 7.2, 5 mM aldehyde, storage period 6.6 d
[25] = storage at 4° C., pH 7.2, 10 mM aldehyde, storage period 0.6 d
[26] = storage at 4° C., pH 7.2, 10 mM aldehyde, storage period 3.6 d
[27] = storage at 4° C., pH 7.2, 10 mM aldehyde, storage period 6.6 d
[28] = storage at 22° C., pH 6.0, 1 mM aldehyde, storage period 0.6 d
[29] = storage at 22° C., pH 6.0, 1 mM aldehyde, storage period 3.6 d
[30] = storage at 22° C., pH 6.0, 1 mM aldehyde, storage period 6.6 d
[31] = storage at 22° C., pH 6.0, 5 mM aldehyde, storage period 0.6 d
[32] = storage at 22° C., pH 6.0, 5 mM aldehyde, storage period 3.6 d
[33] = storage at 22° C., pH 6.0, 5 mM aldehyde, storage period 6.6 d
[34] = storage at 22° C., pH 6.0, 10 mM aldehyde, storage period 0.6 d
[35] = storage at 22° C., pH 6.0, 10 mM aldehyde, storage period 3.6 d
[36] = storage at 22° C., pH 6.0, 10 mM aldehyde, storage period 6.6 d
[37] = storage at 22° C., pH 6.6, 1 mM aldehyde, storage period 0.6 d
[38] = storage at 22° C., pH 6.6, 1 mM aldehyde, storage period 3.6 d
[39] = storage at 22° C., pH 6.6, 1 mM aldehyde, storage period 6.6 d
[40] = storage at 22° C., pH 6.6, 5 mM aldehyde, storage period 0.6 d
[41] = storage at 22° C., pH 6.6, 5 mM aldehyde, storage period 3.6 d
[42] = storage at 22° C., pH 6.6, 5 mM aldehyde, storage period 6.6 d
[43] = storage at 22° C., pH 6.6, 10 mM aldehyde, storage period 0.6 d
[44] = storage at 22° C., pH 6.6, 10 mM aldehyde, storage period 3.6 d
[45] = storage at 22° C., pH 6.6, 10 mM aldehyde, storage period 6.6 d
[46] = storage at 22° C., pH 7.2, 1 mM aldehyde, storage period 0.6 d
[47] = storage at 22° C., pH 7.2, 1 mM aldehyde, storage period 3.6 d
[48] = storage at 22° C., pH 7.2, 1 mM aldehyde, storage period 6.6 d
[49] = storage at 22° C., pH 7.2, 5 mM aldehyde, storage period 0.6 d
[50] = storage at 22° C., pH 7.2, 5 mM aldehyde, storage period 3.6 d
[51] = storage at 22° C., pH 7.2, 5 mM aldehyde, storage period 6.6 d
[52] = storage at 22° C., pH 7.2, 10 mM aldehyde, storage period 0.6 d
[53] = storage at 22° C., pH 7.2, 10 mM aldehyde, storage period 3.6 d
[54] = storage at 22° C., pH 7.2, 10 mM aldehyde, storage period 6.6 d

T1 sequence (P20960 whole entry Q122E/S243P/E312D/I323T/Q324R/P330Q/H331G/T335K/A336I/P338S/V341I/Q343H/T344P): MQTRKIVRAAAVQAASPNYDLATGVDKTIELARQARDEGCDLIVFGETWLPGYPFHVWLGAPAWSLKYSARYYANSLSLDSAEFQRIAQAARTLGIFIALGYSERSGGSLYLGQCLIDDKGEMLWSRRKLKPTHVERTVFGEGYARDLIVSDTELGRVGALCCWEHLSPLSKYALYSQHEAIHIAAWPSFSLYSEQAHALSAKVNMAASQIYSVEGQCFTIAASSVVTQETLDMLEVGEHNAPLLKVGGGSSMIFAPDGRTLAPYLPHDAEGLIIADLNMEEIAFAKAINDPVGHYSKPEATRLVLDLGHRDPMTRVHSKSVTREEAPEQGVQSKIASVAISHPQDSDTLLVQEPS

Structure (SMILES): O=Cc1ccccc1Cl [2-chlorobenzaldehyde]
- Activity in kU/l [1]: 52.4 kU/l
- Activity in kU/l [2]: 53.5 kU/l
- Activity in kU/l [3]: 56.9 kU/l
- Activity in kU/l [4]: 52.5 kU/l
- Activity in kU/l [5]: 55.6 kU/l
- Activity in kU/l [6]: 53.8 kU/l
- Activity in kU/l [7]: 53.5 kU/l
- Activity in kU/l [8]: 55.7 kU/l
- Activity in kU/l [9]: 47.6 kU/l
- Activity in kU/l [10]: 48.8 kU/l
- Activity in kU/l [11]: 55.1 kU/l
- Activity in kU/l [12]: 54.7 kU/l
- Activity in kU/l [13]: 50.6 kU/l
- Activity in kU/l [14]: 56.3 kU/l
- Activity in kU/l [15]: 53.6 kU/l
- Activity in kU/l [16]: 47.4 kU/l
- Activity in kU/l [17]: 55.0 kU/l
- Activity in kU/l [18]: 58.5 kU/l
- Activity in kU/l [19]: 51.3 kU/l
- Activity in kU/l [20]: 48.3 kU/l
- Activity in kU/l [21]: 45.2 kU/l
- Activity in kU/l [22]: 53.3 kU/l
- Activity in kU/l [23]: 51.2 kU/l
- Activity in kU/l [24]: 48.1 kU/l
- Activity in kU/l [25]: 48.3 kU/l
- Activity in kU/l [26]: 51.0 kU/l
- Activity in kU/l [27]: 49.9 kU/l
- Activity in kU/l [28]: 52.4 kU/l
- Activity in kU/l [29]: 53.8 kU/l
- Activity in kU/l [30]: 54.5 kU/l
- Activity in kU/l [31]: 52.5 kU/l
- Activity in kU/l [32]: 55.0 kU/l
- Activity in kU/l [33]: 59.1 kU/l
- Activity in kU/l [34]: 53.5 kU/l
- Activity in kU/l [35]: 55.7 kU/l
- Activity in kU/l [36]: 52.4 kU/l
- Activity in kU/l [37]: 48.8 kU/l
- Activity in kU/l [38]: 55.0 kU/l
- Activity in kU/l [39]: 57.2 kU/l
- Activity in kU/l [40]: 50.6 kU/l
- Activity in kU/l [41]: 56.7 kU/l
- Activity in kU/l [42]: 55.5 kU/l
- Activity in kU/l [43]: 47.4 kU/l
- Activity in kU/l [44]: 56.2 kU/l
- Activity in kU/l [45]: 58.6 kU/l
- Activity in kU/l [46]: 51.3 kU/l
- Activity in kU/l [47]: 52.8 kU/l
- Activity in kU/l [48]: 53.2 kU/l
- Activity in kU/l [49]: 53.3 kU/l
- Activity in kU/l [50]: 51.4 kU/l
- Activity in kU/l [51]: 50.1 kU/l
- Activity in kU/l [52]: 48.3 kU/l
- Activity in kU/l [53]: 52.9 kU/l
- Activity in kU/l [54]: 54.0 kU/l

Structure (SMILES): O=Cc1ccccc1 [benzaldehyde]
- Activity in kU/l [1]: 55.1 kU/l
- Activity in kU/l [2]: 49.9 kU/l
- Activity in kU/l [3]: 48.3 kU/l
- Activity in kU/l [4]: 51.8 kU/l
- Activity in kU/l [5]: 52.3 kU/l
- Activity in kU/l [6]: 53.0 kU/l
- Activity in kU/l [7]: 51.3 kU/l
- Activity in kU/l [8]: 51.5 kU/l
- Activity in kU/l [9]: 50.2 kU/l
- Activity in kU/l [10]: 53.2 kU/l
- Activity in kU/l [11]: 52.3 kU/l
- Activity in kU/l [12]: 52.5 kU/l
- Activity in kU/l [13]: 47.1 kU/l
- Activity in kU/l [14]: 52.0 kU/l
- Activity in kU/l [15]: 55.7 kU/l
- Activity in kU/l [16]: 51.3 kU/l
- Activity in kU/l [17]: 55.5 kU/l
- Activity in kU/l [18]: 51.9 kU/l
- Activity in kU/l [19]: 55.8 kU/l
- Activity in kU/l [20]: 46.8 kU/l
- Activity in kU/l [21]: 47.5 kU/l
- Activity in kU/l [22]: 47.1 kU/l
- Activity in kU/l [23]: 48.3 kU/l
- Activity in kU/l [24]: 50.7 kU/l
- Activity in kU/l [25]: 53.8 kU/l
- Activity in kU/l [26]: 51.2 kU/l
- Activity in kU/l [27]: 49.2 kU/l
- Activity in kU/l [28]: 55.1 kU/l
- Activity in kU/l [29]: 50.6 kU/l
- Activity in kU/l [30]: 51.0 kU/l
- Activity in kU/l [31]: 51.8 kU/l
- Activity in kU/l [32]: 51.5 kU/l
- Activity in kU/l [33]: 54.9 kU/l
- Activity in kU/l [34]: 51.3 kU/l
- Activity in kU/l [35]: 53.0 kU/l
- Activity in kU/l [36]: 49.2 kU/l
- Activity in kU/l [37]: 53.2 kU/l
- Activity in kU/l [38]: 53.0 kU/l
- Activity in kU/l [39]: 53.1 kU/l
- Activity in kU/l [40]: 47.1 kU/l
- Activity in kU/l [41]: 54.3 kU/l
- Activity in kU/l [42]: 58.0 kU/l
- Activity in kU/l [43]: 51.3 kU/l
- Activity in kU/l [44]: 49.4 kU/l
- Activity in kU/l [45]: 55.4 kU/l
- Activity in kU/l [46]: 55.8 kU/l
- Activity in kU/l [47]: 50.4 kU/l
- Activity in kU/l [48]: 48.7 kU/l
- Activity in kU/l [49]: 47.1 kU/l
- Activity in kU/l [50]: 51.7 kU/l
- Activity in kU/l [51]: 52.9 kU/l
- Activity in kU/l [52]: 53.8 kU/l
- Activity in kU/l [53]: 52.7 kU/l
- Activity in kU/l [54]: 51.3 kU/l
